Experimental data reported in patent US8063075B2, “Pyrrolidine ether derivatives as NK3 receptor antagonists” (Hoffmann-La Roche Inc., priority 2008, dated 2011).

Target: T1, recombinant human NK3 receptor (Homo sapiens, UniProt P29371)
T1 construct: expressed in transfected cells; host or cells: HEK293 cells (transient expression), membranes
T1 sequence (P29371 1-465): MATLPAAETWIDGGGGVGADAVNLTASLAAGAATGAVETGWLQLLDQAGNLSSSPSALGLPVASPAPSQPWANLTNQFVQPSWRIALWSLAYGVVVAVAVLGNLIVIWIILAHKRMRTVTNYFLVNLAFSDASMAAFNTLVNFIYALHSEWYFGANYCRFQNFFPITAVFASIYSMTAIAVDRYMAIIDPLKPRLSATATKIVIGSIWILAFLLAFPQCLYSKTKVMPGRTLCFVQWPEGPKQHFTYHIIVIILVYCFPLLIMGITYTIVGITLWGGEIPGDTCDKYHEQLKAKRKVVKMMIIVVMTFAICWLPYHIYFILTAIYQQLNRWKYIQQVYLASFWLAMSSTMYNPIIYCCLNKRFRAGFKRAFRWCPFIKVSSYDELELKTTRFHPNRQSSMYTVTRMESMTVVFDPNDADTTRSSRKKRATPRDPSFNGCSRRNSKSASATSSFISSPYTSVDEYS
Test: [3H]SR142801 competition binding assay
Details: membranes from HEK293 cells transiently expressing hNK3; [3H]SR142801 at its KD; 75 min RT; read-out: Data [μM] (affinity constant Ki, hNK3 receptor binding)
Method: [^3H]SR142801 Competition Binding Assay
hNK3 receptor binding experiment were performed using [^3H]SR142801 (Catalog No. TRK1035, specific activity: 74.0 Ci/mmol, Amersham, GE Healthcare UK limited, Buckinghamshire, UK) and membrane isolated from HEK293 cells transiently expressing recombinant human NK3 receptor. After thawing, the membrane homogenates were centrifuged at 48,000×g for 10 min at 4° C., the pellets were resuspended in the 50 mM Tris-HCl, 4 mM MnCl2, 1 μM phosphoramidon, 0.1% BSA binding buffer at pH 7.4 to a final assay concentration of 5 μg protein/well. […] At the end of the incubation, membranes were filtered onto unitfilter (96-well white microplate with bonded GF/C filter preincubated 1 h in 0.3% PEI+0.3% BSA, Packard BioScience, Meriden, Conn.) with a Filtermate 196 harvester (Packard BioScience) and washed 4 times with ice-cold 50 mM Tris-HCl, pH 7.4 buffer. Nonspecific binding was measured in the presence of 10 μM SB222200 for both radioligands. The radioactivity on the filter was counted (5 min) on a Packard Top-count microplate scintillation counter with quenching correction after addition of 45 μl of microscint 40 (Can berra Packard S. A., Zürich, Switzerland) and shaking for 1 h. Inhibition curves were fitted according to the Hill equation: y=100/(1+(x/IC50)^nH), where nH=slope factor using Excel-fit 4 software (Microsoft). IC50 values were derived from the inhibition curve and the affinity constant (Ki) values were calculated using the Cheng-Prussoff equation Ki=IC50/(1+[L]/KD) where [L] is the concentration of radioligand and KD is its dissociation constant at the receptor, derived from the saturation isotherm. All experiments were performed in duplicate and the mean±standard error (SEM) of the individual Ki values was calculated.

| SMILES | Ki [µM] |
| --- | --- |
| CC(C)CN1CCC(C(=O)N2C[C@H]([C@H](C)Oc3ccc(Cl)cn3)[C@@H](c3ccc(Cl)c(Cl)c3)C2)CC1 (racemic) [Example 11, [(3RS,4SR)-3-[(SR)-1-(5-Chloro-pyridin-2-yloxy)-ethyl]-4-(3,4-dichloro-phenyl)-pyrrolidin-1-yl]-(1-isobutyl-piperidin-4-yl)-methanone] | 0.0061 |
| C[C@H](Oc1ccc(C#N)cn1)[C@H]1CN(C(=O)C2CCN(C(=O)OC(C)(C)C)CC2)C[C@@H]1c1ccc(Cl)c(Cl)c1 (racemic) [Example 13, 4-[(3RS,4SR)-3-[(SR)-1-(5-Cyano-pyridin-2-yloxy)-ethyl]-4-(3,4-dichloro-phenyl)-pyrrolidine-1-carbonyl]-piperidine-1-carboxylic acid tert-butyl ester] | 0.0044 |
| C[C@H](Oc1ccc(Cl)cn1)[C@H]1CN(C(=O)C2CCN(C(=O)C3(C)CC3)CC2)C[C@@H]1c1ccc(Cl)cc1 [Example 52, {(3S,4R)-3-(4-Chloro-phenyl)-4-[(S)-1-(5-chloro-pyridin-2-yloxy)-ethyl]-pyrrolidin-1-yl}-[1-(1-methyl-cyclopropanecarbonyl)-piperidin-4-yl]-methanone] | 0.001 |
| C[C@H](Oc1ccc(C#N)cn1)[C@H]1CN(C(=O)C2CCN(C(=O)C3(C)CC3)CC2)C[C@@H]1c1ccc(Cl)c(Cl)c1 (racemic) [Example 17, 6-((SR)-1-{(3RS,4SR)-4-(3,4-Dichloro-phenyl)-1-[1-(1-methyl-cyclopropanecarbonyl)-piperidine-4-carbonyl]-pyrrolidin-3-yl}-ethoxy)-nicotinonitrile] | 0.0046 |
| C[C@H](Oc1ccc(C#N)cn1)[C@H]1CN(C(=O)C2CCN(C(=O)C3CC3)CC2)C[C@@H]1c1ccc(Cl)c(Cl)c1 (racemic) [Example 14, 6-{(SR)-1-[(3RS,4SR)-1-(1-Cyclopropanecarbonyl-piperidine-4-carbonyl)-4-(3,4-dichloro-phenyl)-pyrrolidin-3-yl]-ethoxy}-nicotinonitrile] | 0.0049 |
| C[C@H](Oc1ccc(C#N)cn1)[C@H]1CN(C(=O)C2CCN(C(=O)C3(N)CC3)CC2)C[C@@H]1c1ccc(Cl)c(Cl)c1 (racemic) [Example 19, 6-{(SR)-1-[(3RS,4SR)-1-[1-(1-Amino-cyclopropanecarbonyl)-piperidine-4-carbonyl]-4-(3,4-dichloro-phenyl)-pyrrolidin-3-yl]-ethoxy}-nicotinonitrile] | 0.0077 |
| C[C@H](Oc1ccc(C#N)cn1)[C@H]1CN(C(=O)[C@H]2CC[C@H](N(C)C(=O)OC(C)(C)C)CC2)C[C@@H]1c1ccc(Cl)c(Cl)c1 (racemic) [Example 42, {4-[(3RS,4SR)-3-[(SR)-1-(5-Cyano-pyridin-2-yloxy)-ethyl]-4-(3,4-dichloro-phenyl)-pyrrolidine-1-carbonyl]-cyclohexyl}-methyl-carbamic acid tert-butyl ester] | 0.0028 |
| CCC(=O)N1CCC(C(=O)N2C[C@H]([C@H](C)Oc3ccc(C#N)cn3)[C@@H](c3ccc(Cl)c(Cl)c3)C2)CC1 (racemic) [Example 22, 6-{(SR)-1-[(3RS,4SR)-4-(3,4-Dichloro-phenyl)-1-(1-propionyl-piperidine-4-carbonyl)-pyrrolidin-3-yl]-ethoxy}-nicotinonitrile] | 0.0036 |
| C[C@H](Oc1ccc(Cl)cn1)[C@H]1CN(C(=O)C2CCN(C(=O)C3(C)CC3)CC2)C[C@@H]1c1ccc(Cl)c(F)c1 [Example 53, {(3S,4R)-3-(4-Chloro-3-fluoro-phenyl)-4-[(S)-1-(5-chloro-pyridin-2-yloxy)-ethyl]-pyrrolidin-1-yl}-[1-(1-methyl-cyclopropanecarbonyl)-piperidin-4-yl]-methanone] | 0.0008 |
| CC(=O)N(C)[C@H]1CC[C@H](C(=O)N2C[C@H]([C@H](C)Oc3ccc(C#N)cn3)[C@@H](c3ccc(Cl)c(Cl)c3)C2)CC1 (racemic) [Example 45, N-{4-[(3RS,4SR)-3-[(SR)-1-(5-Cyano-pyridin-2-yloxy)-ethyl]-4-(3,4-dichloro-phenyl)-pyrrolidine-1-carbonyl]-cyclohexyl}-N-methyl-acetamide] | 0.004 |
| C[C@H](Oc1ccc(Cl)cn1)[C@H]1CN(C(=O)C2CCC(=O)CC2)C[C@@H]1c1ccc(Cl)c(Cl)c1 (racemic) [Example 12, 4-[(3RS,4SR)-3-[(SR)-1-(5-Chloro-pyridin-2-yloxy)-ethyl]-4-(3,4-dichloro-phenyl)-pyrrolidine-1-carbonyl]-cyclohexanone] | 0.0092 |
| C[C@H](Oc1ccc(Cl)cn1)[C@H]1CN(C(=O)C2CCN(C(=O)C3CCC3)CC2)C[C@@H]1c1ccc(Cl)c(Cl)c1 (racemic) [Example 3, [(3RS,4SR)-3-[(SR)-1-(5-Chloro-pyridin-2-yloxy)-ethyl]-4-(3,4-dichloro-phenyl)-pyrrolidin-1-yl]-(1-cyclobutanecarbonyl-piperidin-4-yl)-methanone] | 0.0012 |
| C[C@H](Oc1ccc(C#N)cn1)[C@H]1CN(C(=O)C2CCN(C(=O)C3(C)CC3)CC2)C[C@@H]1c1ccc(Cl)c(Cl)c1 (racemic) [Example 47, 6-((SR)-1-{(3RS,4SR)-4-(3,4-Dichloro-phenyl)-1-[1-(1-methyl-cyclopropanecarbonyl)-piperidine-4-carbonyl]-pyrrolidin-3-yl}-ethoxy)-nicotinonitrile] | 0.0019 |
| COCC(=O)N1CCC(C(=O)N2C[C@H]([C@H](C)Oc3ccc(C#N)cn3)[C@@H](c3ccc(Cl)c(Cl)c3)C2)CC1 (racemic) [Example 24, 6-((SR)-1-{(3RS,4SR)-4-(3,4-Dichloro-phenyl)-1-[1-(2-methoxy-acetyl)-piperidine-4-carbonyl]-pyrrolidin-3-yl}-ethoxy)-nicotinonitrile] | 0.0036 |
| CC(=O)N1CCC(C(=O)N2C[C@H]([C@H](C)Oc3ccc(Cl)cn3)[C@@H](c3ccc(Cl)c(Cl)c3)C2)CC1 (racemic) [Example 1, 1-{4-[(3RS,4SR)-3-[(SR)-1-(5-Chloro-pyridin-2-yloxy)-ethyl]-4-(3,4-dichloro-phenyl)-pyrrolidine-1-carbonyl]-piperidin-1-yl}-ethanone] | 0.0047 |
| CC(=O)N1CCC(C(=O)N2C[C@H]([C@H](C)Oc3ccc(C#N)cn3)[C@@H](c3ccc(Cl)c(Cl)c3)C2)CC1 (racemic) [Example 2, 6-{(SR)-1-[(3RS,4SR)-1-(1-Acetyl-piperidine-4-carbonyl)-4-(3,4-dichloro-phenyl)-pyrrolidin-3-yl]-ethoxy}-nicotinonitrile] | 0.0076 |
| C#C[C@H]1CC[C@H](C(=O)N2C[C@H]([C@H](C)Oc3ccc(Cl)cn3)[C@@H](c3ccc(Cl)c(Cl)c3)C2)CC1 (racemic) [Example 10, [(3RS,4SR)-3-[(SR)-1-(5-Chloro-pyridin-2-yloxy)-ethyl]-4-(3,4-dichloro-phenyl)-pyrrolidin-1-yl]-(4-ethynyl-cyclohexyl)-methanone] | 0.009 |
| C[C@H](Oc1ccc(C#N)cn1)[C@H]1CN(C(=O)C2CCN(C(=O)C3CCC3)CC2)C[C@@H]1c1ccc(Cl)c(Cl)c1 (racemic) [Example 20, 6-{(SR)-1-[(3RS,4SR)-1-(1-Cyclobutanecarbonyl-piperidine-4-carbonyl)-4-(3,4-dichloro-phenyl)-pyrrolidin-3-yl]-ethoxy}-nicotinonitrile] | 0.0026 |
| C[C@H](Oc1ccc(C#N)cn1)[C@H]1CN(C(=O)C2CCN(C(=O)C3CC(=O)C3)CC2)C[C@@H]1c1ccc(Cl)c(Cl)c1 (racemic) [Example 21, 6-((SR)-1-{(3RS,4SR)-4-(3,4-Dichloro-phenyl)-1-[1-(3-oxo-cyclobutanecarbonyl)-piperidine-4-carbonyl]-pyrrolidin-3-yl}-ethoxy)-nicotinonitrile] | 0.0021 |
| COC[C@H]1CC[C@H](C(=O)N2C[C@H]([C@H](C)Oc3ccc(Cl)cn3)[C@@H](c3ccc(Cl)c(Cl)c3)C2)CC1 (racemic) [Example 6, [(3RS,4SR)-3-[(SR)-1-(5-Chloro-pyridin-2-yloxy)-ethyl]-4-(3,4-dichloro-phenyl)-pyrrolidin-1-yl]-(4-methoxymethyl-cyclohexyl)-methanone] | 0.0058 |
